Values after ≈ are worked out from the molar mass of the structure shown.
Legend:
[1] = molecular target: T1, recombinant human CD73 (hCD73) (Homo sapiens, UniProt P21589); experiment: CD73 activity assay on recombinant human CD73; assay type: biochemical; conditions: ΔGexp = RT ln Ki
T1 sequence (P21589 27-574): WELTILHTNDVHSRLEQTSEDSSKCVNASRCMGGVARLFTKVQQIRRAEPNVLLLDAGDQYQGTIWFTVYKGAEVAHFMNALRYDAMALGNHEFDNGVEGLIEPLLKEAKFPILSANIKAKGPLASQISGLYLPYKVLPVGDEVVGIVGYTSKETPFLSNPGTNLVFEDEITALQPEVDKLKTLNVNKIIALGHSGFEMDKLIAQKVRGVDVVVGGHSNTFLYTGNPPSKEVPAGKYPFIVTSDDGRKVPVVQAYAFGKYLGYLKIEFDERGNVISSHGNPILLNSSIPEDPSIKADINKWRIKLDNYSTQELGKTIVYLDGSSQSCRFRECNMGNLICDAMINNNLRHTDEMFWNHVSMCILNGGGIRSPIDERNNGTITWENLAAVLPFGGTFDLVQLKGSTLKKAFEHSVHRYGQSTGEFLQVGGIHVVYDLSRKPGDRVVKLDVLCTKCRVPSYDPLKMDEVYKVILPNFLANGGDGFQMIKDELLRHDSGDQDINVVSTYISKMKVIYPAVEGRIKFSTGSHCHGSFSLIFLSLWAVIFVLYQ

[2] = In vivo pharmacokinetic study, intravenous; set-up: species or system male CD-1 mice; conditions: plasma, 1 mg/kg, intravenous; for half-life: male, CD-1, mouse, iv, footnote: t1/2 stability in plasma, text: half-life in mouse PK; for clearance: mouse, male CD-1 mice, single dose, read-out: Cl (obs), observed clearance
Description: The pharmacokinetic study was performed by Bienta (Enamine Biology Services) using male CD-1 mice (3 animals, 9 weeks old, body weight ranging from 29.2 to 33.7 g) following intravenous administration. Levels of the test compound were determined by LC-MS/MS in blood plasma over time (seven sampling time points: 5, 15, 30, 60, 120, 240, and 480 min) after a single dose.
Animal treatment and samples preparation were conducted by the Animal Laboratory personnel at Enamine/Bienta.

[3] = Plasma protein binding, equilibrium dialysis, human plasma; assay type: in vitro ADME; conditions: undiluted plasma, human plasma protein binding, read-out: PPB (hu) (converted)
[4] = Plasma protein binding, mouse plasma; assay type: in vitro ADME; conditions: mouse, plasma
[5] = Kinetic solubility in PBS; assay type: physicochemical; conditions: phosphate-buffered saline, pH 7.4, aqueous buffer, kinetic from dmso stock
In short: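 Echo-MS quantitation with calibration from 0.05 to 4 μM, after 1:99 dilution of filtrate into 50% acetonitrile. Filtrate came from a 100 μM PBS (pH 7.4) solution equilibrated 2 h at room temperature with shaking, in duplicate.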

[6] = Microsomal stability assay, human liver microsomes; assay type: in vitro ADME; conditions: for Mics (hu) comp remaining 60 min: 10 μM; for microsomal CLint at 10 µM: pooled liver microsomes, pH 7.4, read-out: Mics (hu) CLint
[7] = Microsomal stability assay, mouse liver microsomes; assay type: in vitro ADME; conditions: for Mics (m) comp remaining 60 min: 10 μM; for microsomal CLint at 10 µM: pooled liver microsomes, pH 7.4, read-out: Mics (m) CLint
CCRF-CEM = experiment: In vitro cytotoxic activity; assay type: cell-based; conditions: Homo sapiens
Description: (§1) All the compounds were also tested for their in vitro cytotoxic activity on a small panel of four cancer cell lines (CCRF-CEM, HepG2, HeLa S3, HL-60) and nonmalignant human dermal fibroblasts (NHDF).

HL-60 = experiment: In vitro cytotoxic activity; assay type: cell-based; conditions: Homo sapiens
Description: as §1

HeLa S3 = experiment: In vitro cytotoxic activity; assay type: cell-based; conditions: Homo sapiens
Description: as §1

HepG2 = experiment: In vitro cytotoxic activity; assay type: cell-based; conditions: Homo sapiens
Description: as §1

[8] = system: nonmalignant human dermal fibroblasts (NHDF); experiment: In vitro cytotoxic activity; assay type: cell-based
Description: as §1

in vitro [9] = conditions: human, plasma
in vitro [10] = conditions: mouse, plasma
[11] = Tables 2 and 4, mouse plasma, read-out: fup, fraction unbound in mouse plasma
[12] = mouse plasma protein binding, read-out: PPB (m) (converted)

SMILES	dG_exp, experimental binding free energy [1]	half-life [2]	clearance [2]	fraction unbound at 4 h, 100 µM [3]	fraction unbound at 4 h, 100 µM [4, 11]	fraction unbound at 4 h, 100 µM [4, 12]	solubility at 2 h [5]	Mics (hu) comp remaining 60 min [6]	microsomal CLint at 10 µM [6]	Mics (m) comp remaining 60 min [7]	microsomal CLint at 10 µM [7]	IC50 (CCRF-CEM)	IC50 (HL-60)	IC50 (HeLa S3)	IC50 (HepG2)	IC50 [8]	half-life at 10 µM (in vitro [9])	half-life at 10 µM (in vitro [10])
O=P(O)(O)CP(=O)(O)OC[C@H]1O[C@@H](n2ccc3c(-c4ccco4)nc(Cl)nc32)[C@H](O)[C@@H]1O [7B.1, [(5-{[2-Chloro-4-(furan-2-yl)-7H-pyrrolo[2,3-d]pyrimidin-7-yl]-β-D-ribofuranosyl}oxy)phosphonomethyl]phosphonic Acid]	–15.2 kcal/mol	0.105 h	8.3 mL/min/kg	0.098	0.92	0.818	> 100 µM	98%	2 µL/min/mg	106%	< 1 µL/min/mg	8.8 µM	5.6 µM	> 10 µM	> 10 µM	> 10 µM	> 2 h	> 2 h
O=P(O)(O)CP(=O)(O)OC[C@H]1O[C@@H](n2ccc3c(-c4ccc5ccccc5c4)nc(Cl)nc32)[C@H](O)[C@@H]1O [7B.7]	–15.9 kcal/mol	0.122 h	8.3 mL/min/kg	0.033	0.11	0.112	84 µM (≈ 47.9 µg/mL)	111%	< 1 µL/min/mg	106%	< 1 µL/min/mg	> 10 µM	> 10 µM	> 10 µM	> 10 µM	> 10 µM	> 2 h	> 2 h
O=P(O)(O)CP(=O)(O)OC[C@H]1O[C@@H](n2ccc3c(-c4cc5ccccc5o4)nc(Cl)nc32)[C@H](O)[C@@H]1O [7B.8]	–16.0 kcal/mol	0.142 h	8.8 mL/min/kg	0.033	0.19	0.187	87 µM (≈ 48.7 µg/mL)	98%	1 µL/min/mg	109%	< 1 µL/min/mg	> 10 µM	6 µM	> 10 µM	> 10 µM	> 10 µM	> 2 h	> 2 h
O=P(O)(O)CP(=O)(O)OC[C@H]1O[C@@H](n2ccc3c(-c4cc5ccccc5[nH]4)nc(Cl)nc32)[C@H](O)[C@@H]1O [7B.24]	–15.7 kcal/mol	0.617 h	12 mL/min/kg	0.012	0.21	0.201	> 100 µM	111%	< 1 µL/min/mg	72%	12 µL/min/mg	> 10 µM	> 10 µM	> 10 µM	> 10 µM	> 10 µM	> 2 h	> 2 h
O=P(O)(O)CP(=O)(O)OC[C@H]1O[C@@H](n2ccc3c(-c4ccc5cc(F)ccc5c4)nc(Cl)nc32)[C@H](O)[C@@H]1O [7B.25]	–15.4 kcal/mol	0.283 h	5.9 mL/min/kg	≤ 0.01	0.08	0.079	> 100 µM	108%	< 2 µL/min/mg	109%	< 2 µL/min/mg	> 10 µM	> 10 µM	> 10 µM	> 10 µM	> 10 µM	> 2 h	> 2 h
O=P(O)(O)CP(=O)(O)OC[C@H]1O[C@@H](n2ccc3c(-c4cc(Br)c5ccccc5c4F)nc(Cl)nc32)[C@H](O)[C@@H]1O [7B.26]	–15.7 kcal/mol	1.67 h	1.1 mL/min/kg	≤ 0.01	0.02	0.016	71 µM (≈ 47.3 µg/mL)	117%	< 2 µL/min/mg	113%	< 2 µL/min/mg	> 10 µM	> 10 µM	> 10 µM	> 10 µM	> 10 µM	> 2 h	> 2 h
O=P(O)(O)CP(=O)(O)OC[C@H]1O[C@@H](n2ccc3c(-c4ccc5cc(Cl)ccc5c4)nc(Cl)nc32)[C@H](O)[C@@H]1O [7B.27]	–15.3 kcal/mol	2.43 h	6.7 mL/min/kg	≤ 0.01	0.04	0.036	89 µM (≈ 53.8 µg/mL)	148%	< 2 µL/min/mg	140%	< 2 µL/min/mg	> 10 µM	> 10 µM	> 10 µM	> 10 µM	> 10 µM	> 2 h	> 2 h
COC(=O)c1ccc2cc(-c3nc(Cl)nc4c3ccn4[C@@H]3O[C@H](COP(=O)(O)CP(=O)(O)O)[C@@H](O)[C@H]3O)ccc2c1 [7B.29]	–14.6 kcal/mol	0.138 h	7.2 mL/min/kg	≤ 0.01	0.23	0.234	85 µM (≈ 53.4 µg/mL)	132%	< 2 µL/min/mg	112%	< 2 µL/min/mg	> 10 µM	> 10 µM	> 10 µM	> 10 µM	> 10 µM	> 2 h	> 2 h
O=P(O)(O)CP(=O)(O)OC[C@H]1O[C@@H](n2ccc3c(-c4ccc5cc(O)ccc5c4)nc(Cl)nc32)[C@H](O)[C@@H]1O [7B.32]	–15.8 kcal/mol	0.113 h	11 mL/min/kg	0.084	0.2	0.198	> 100 µM	104%	< 2 µL/min/mg	111%	< 2 µL/min/mg	> 10 µM	> 10 µM	> 10 µM	> 10 µM	> 10 µM	> 2 h	> 2 h
Nc1nc(-c2cccc3ccccc23)c2ccn([C@@H]3O[C@H](COP(=O)(O)CP(=O)(O)O)[C@@H](O)[C@H]3O)c2n1 [11C.6]	–13.9 kcal/mol	2.78 h	2.3 mL/min/kg	0.067	0.56	0.564	> 100 µM	92%	3 µL/min/mg	102%	< 1 µL/min/mg	> 10 µM	> 10 µM	> 10 µM	> 10 µM	> 10 µM	> 2 h	> 2 h

Reference: PMC12797170, “Potent Competitive Inhibitors of Ecto-5′-nucleotidase (CD73) based on 6‑(Het)aryl-7-deazapurine Ribonucleoside 5′‑O‑Bisphosphonates” (ACS Pharmacology & Translational Science, 2025)
